Each structure is given as a SMILES string.

The text below walks through data of article PMC6005271.

Series [1] can be described thus: Ni-mediated reductive aryl-aryl (2-halopyridine) homo/cross-coupling forming the 2,2'-bipyridine C-C bond; [Ni(PPh3)2Br2] 1 eq, PPh3 2 eq, Mn 10 eq, NEt4I 1 eq; slow addition of dihalide over 4 h. The settings on record: DMF, 50.0 mM, 50.0 °C.
Series [2] in a line: Double Williamson ether macrocyclisation of preformed bipyridine precursor with a bis-electrophile, high dilution (previous syntheses). To be noted: the molecule shown is the open-chain precursor; 25-membered ring; DMF; 72.0 h; cited from earlier work.

Turning to `c1cc2nc(c1)-c1cccc(n1)OCCc1ccc(cc1)OCCCCOc1ccc(cc1)CCO2`, the ring closure, isolated yield in series [1] (from Brc1cccc(OCCc2ccc(OCCCCOc3ccc(CCOc4cccc(Br)n4)cc3)cc2)n1, 26-membered ring, 5.0 h) turned out to be 65%. On to `c1cc2nc(c1)-c1cccc(n1)COCc1ccc(cc1)OCCCCOc1ccc(cc1)COC2` [S4 (dichloro analogue of 1b) -> 2b], for which the ring closure, isolated yield in series [1] (from Clc1cccc(COCc2ccc(OCCCCOc3ccc(COCc4cccc(Cl)n4)cc3)cc2)n1, 26-membered ring) came out at 56%. In turn, `c1cc2nc(c1)-c1cccc(n1)CCCc1ccc(cc1)OCCCCOc1ccc(cc1)CCC2` [1a -> 2a] had a ring closure, isolated yield in series [1] (from Brc1cccc(CCCc2ccc(OCCCCOc3ccc(CCCc4cccc(Br)n4)cc3)cc2)n1, 26-membered ring, 5.0 h) of 71%. Take `c1cc2nc(c1)-c1cccc(n1)COCc1ccc(cc1)OCCCCOc1ccc(cc1)CCC2` [1f -> 2f]: the ring closure, isolated yield in series [1] (from Brc1cccc(CCCc2ccc(OCCCCOc3ccc(COCc4cccc(Br)n4)cc3)cc2)n1, 26-membered ring, 5.0 h) stood at 76%.

In turn, `c1cc2nc(c1)-c1cccc(n1)COCc1ccc(cc1)OCCCCOc1ccc(cc1)COC2` [1b -> 2b] gave a ring closure, isolated yield in series [1] (from Brc1cccc(COCc2ccc(OCCCCOc3ccc(COCc4cccc(Br)n4)cc3)cc2)n1, 26-membered ring, 5.0 h) of 70%. In turn, `c1cc2nc(c1)-c1cccc(n1)-c1ccc(cc1)OCc1ccc(cc1)COc1ccc(cc1)CCC2` showed a ring closure, isolated yield in series [1] (from Brc1cccc(CCCc2ccc(OCc3ccc(COc4ccc(-c5cccc(Br)n5)cc4)cc3)cc2)n1, 25-membered ring, 5.0 h) of 41%. As for `c1cc2cc(c1)-c1cccc(n1)CCCc1ccc(cc1)OCCCCOc1ccc(cc1)COC2` [1i(Br) dibromo precursor -> 2i], the ring closure, isolated yield in series [1] (from Brc1cccc(COCc2ccc(OCCCCOc3ccc(CCCc4cccc(Br)n4)cc3)cc2)c1, 26-membered ring) turned out to be 16%. In turn, `c1cc2nc(c1)-c1cccc(n1)-c1ccc(cc1)OCCOCCOCCOCCOc1ccc-2cc1` [1e -> 2e] had a ring closure, isolated yield in series [1] (from Brc1cccc(-c2ccc(OCCOCCOCCOCCOc3ccc(-c4cccc(Br)n4)cc3)cc2)n1, 27-membered ring, 5.0 h) of 73%. In the case of `c1cc2nc(c1)-c1cccc(n1)COCc1ccc(cc1)OCCCCCCCCCCOc1ccc(cc1)COC2` [1c -> 2c], in series [1] (from Brc1cccc(COCc2ccc(OCCCCCCCCCCOc3ccc(COCc4cccc(Br)n4)cc3)cc2)n1, 32-membered ring, 5.0 h), the ring closure, isolated yield came out at 67%. On to `Oc1ccc(-c2cccc(-c3cccc(CCCc4ccc(OCc5ccc(CBr)cc5)cc4)n3)n2)cc1`, for which the ring closure, isolated yield in series [2] is 6%.

On to `c1cc2nc(c1)-c1cccc(n1)-c1ccc(cc1)OCCCCCCCOc1ccc(cc1)CCC2` [1g -> 2g (DMF-THF 3:1)], for which the ring closure, isolated yield in series [1] (from Brc1cccc(CCCc2ccc(OCCCCCCCOc3ccc(-c4cccc(Br)n4)cc3)cc2)n1, 26-membered ring, 5.0 h) is 66%.

`c1cc2cc(c1)-c1cccc(n1)CCCc1ccc(cc1)OCCCCOc1ccc(cc1)COC2` came in with a ring closure, isolated yield in series [1] (from Brc1cccc(CCCc2ccc(OCCCCOc3ccc(COCc4cccc(I)c4)cc3)cc2)n1, 26-membered ring, 5.0 h) of 24%.
